Test results from US12709637B2, “Regulated synthetic gene activation systems” (TRUSTEES OF BOSTON UNIVERSITY, priority 2023, dated 2026).
Entries after “also recorded” stand apart in the source; their conditions may differ.

Tests used:
iCasp9+ cells = settings: cited from earlier work
[1] = tested on: mCherry fluorescent reporter in Jurkat T cells; assay: hhTAD transcription activators, mCherry reporter in Jurkat T cells; format: cell-based; settings: 1 uM GZV or 4-OHT, 72h, compared with p65 and VPR counterparts
Description: FIG. 6A is a schematic and bar graph showing that the IWS1 TIMs domain increases transcriptional activation in an NS3-comprising synTF in the presence of grazoprevir. FIG. 6B is a schematic and bar graph showing that the IWS1 TIMs domain increases transcriptional activation in an ERT2-comprising synTF in the presence of 4OHT.
The humanized hybrid transcription activator domain (see e.g., SEQ ID NOs: 15-16) when integrated into small-molecule inducible transcriptional activation systems is able to robustly and strongly induce transgene expression in mammalian cells. The humanized hybrid transcription activation domain (hhTAD) was attached to an artificial zinc finger proteins (see e.g., U.S. Pat. No. 10,138,493 B2 and US Patent Publication No. 2020/0377564 A1; the contents of each of which are incorporated herein by reference in their entirety) to either a NS3 or ERT2 domain (see e.g., FIG. 5A). To report transcriptional activation, described herein is a […] mCherry fluorescent reporter (see e.g., FIG. 5B). […]
To evaluate the strength of this hhTAD, Jurkat T cells were generated stably expressing both the transcription activator(s) modified with the hhTAD and fluorescent reporter. […] Reporter cells with were treated 1 uM GZV or 4-OHT, and mCherry reporter fluorescence was measured at 72h (see e.g., FIG. 6A-6B).

[2] = tested on: mCherry reporter in Jurkat T cells; assay: Loss of function TIMs mutants in GZV-synZiFTR2.0; format: cell-based; settings: GZV induction, 3 days, compared to GZV-synZiFTR2.0 carrying WT TIMs
Description: FIG. 4A-4B. IWS1 TIMs mechanism of action. (FIG. 4A) IWS1 mutants affecting TIMs employed in this study. WT TIMs domain in GZV-synZiFTR2.0 were replaced by TIMs structural mutant variants (see e.g., SEQ ID NOs: 5-14). The amino acid sequence of the TIMs domain is shown (see e.g., SEQ ID NO: 5). The boxes highlight each of the 3 TIM amino acid sequences (see e.g., SEQ ID NOs: 6-8) and the mutants respectively (see e.g., SEQ ID NOs: 12-14). Different TIM mutations caused loss of interactions with various transcription elongation factors (Transcription factor IIS (TFIIS) and Elongin A (EloA) for the TIM1 mutant; Protein Phosphatase 1 Nuclear Targeting Subunit (PP1-PNUTs) for the TIM2 mutant; lens epithelium-derived growth factor (LEDGF) and H3K36me2/3 binding protein HDGFL2 (HRP2) for the TIM3 mutant). Figure discloses SEQ ID NOS 5-6, 12, 6, 6-7, 7, 13, 7-8, 8, 8, and 14, respectively, in order of appearance. (FIG. 4B) Evaluating loss of function TIMs mutations. GZV-synZiFTR2.04 distinct mutant variants of TIMs were expressed in Jurkat T cells. The circuit outputs were compared to GZV-synZiFTR2.0 carrying WT TIMs. Jurkat T cells were co-transduced with reporter, synZiFTR2.0 and synZiFTR expression lentiviral vectors in an equal ratio. mCherry fluorescence was measured by flow cytometry 3 days after induction by small molecules at the indicated concentrations. Bars represent mean values for three measurements±SD. Statistics represent two-tailed Student's t test; ****P<0.0001.
The TIMs domain contains a series of three unique TIMs that selectively interact with different TND-containing factors. TIM1 interacts with Transcription Factor IIS (TFIIS) and Elongin A (EloA), TIM2 is recognized by the PP1-PNUTS phosphatase, and finally the H3K36me3 readers, lens epithelium-derived growth factor (LEDGF), and H3K36me2/3 binding protein HDGFL2 (HRP2) bind to TIM3. Here, it was investigated which direct interactions between each TIMs and their protein partner is involved in the enhanced transcriptional output by synZiFTR2.0s. […]

[3] = among 2A peptides; cited from earlier work

In the case of CC[C@H](C(=O)N1CCCC[C@H]1C(=O)O[C@H](CCc1ccc(OC)c(OC)c1)c1cccc(OCC(=O)NCCNC(=O)COc2cccc([C@@H](CCc3ccc(OC)c(OC)c3)OC(=O)[C@@H]3CCCCN3C(=O)[C@@H](CC)c3cc(OC)c(OC)c(OC)c3)c2)c1)c1cc(OC)c(OC)c(OC)c1 [AP1903], the “GvHD outcome after AP1903” value (iCasp9+ cells; patients receiving iCasp9 T cells) is given as “complete reversal of GvHD; also recorded: Two of the four patients” and the “reduction in iCasp9+ cells” value (iCasp9+ cells; phase I trial, four patients with acute GvHD, within 30 minutes of administration) is given as 90%.

For “IWS1 TIMs domain: amino acids 449-492 of IWS1, SEQ ID NO: 5, 44 aa; transcriptional effector domain”, the mCherry reporter fluorescence [1] was “increases their transcriptional activation”.

For “M1: TIM1 mutant, L458A and F459A, SEQ ID NO: 9, in GZV-synZiFTR2.0 (SDKKNEEKDAAGSDSESGNEEENLIADIFGESGDEEEEEFTGFN)”, the mCherry fluorescence output [2] was “did not affect GZV-synZiFTR2.0 output”.

In the case of “M2: TIM2 mutant, I476A and F477A, SEQ ID NO: 10, in GZV-synZiFTR2.0 (SDKKNEEKDLFGSDSESGNEEENLIADAAGESGDEEEEEFTGFN)”, the mCherry fluorescence output [2] is reported as “ablated the mCherry fluorescence output by TIMs-p65 fusion”.

In the case of “M3: TIM3 mutant, F488A and F491A, SEQ ID NO: 11, in GZV-synZiFTR2.0 (SDKKNEEKDLFGSDSESGNEEENLIADIFGESGDEEEEEATGAN)”, the mCherry fluorescence output [2] is reported as “did not affect GZV-synZiFTR2.0 output”.

For “P2A: 2A self-cleaving peptide derived from porcine teschovirus-1 2A, SEQ ID NO: 341 (GSGATNFSLLKQAGDVEENPGP; VARIANT 1..3 May be absent)”, the efficiency of self-cleaving [3] is listed as “most efficient”.
